# Reference: patent publication US11319324B2, “Pyrazolo-pyrrolo-pyrimidine-dione derivatives as P2X3 inhibitors” (Bayer Aktiengesellschaft, priority 2017, dated 2022)
# Columns and labels:
# Format in all cases: cell-based
# [1] = biological target: T1, human P2X3 receptor (Homo sapiens, UniProt P56373); assay: Intracellular calcium measurement to assess antagonist activity at human P2X3 receptors (hP2X3 FLIPR); set-up: expressed in transfected cells; host or cells: human astrocytoma 1321N1 (1312N1 [sic]); conditions: head prints (1321N1); read-out: 1) hP2X3 IC50 [nM] (1321N1)
# T1 sequence (P56373 1-397): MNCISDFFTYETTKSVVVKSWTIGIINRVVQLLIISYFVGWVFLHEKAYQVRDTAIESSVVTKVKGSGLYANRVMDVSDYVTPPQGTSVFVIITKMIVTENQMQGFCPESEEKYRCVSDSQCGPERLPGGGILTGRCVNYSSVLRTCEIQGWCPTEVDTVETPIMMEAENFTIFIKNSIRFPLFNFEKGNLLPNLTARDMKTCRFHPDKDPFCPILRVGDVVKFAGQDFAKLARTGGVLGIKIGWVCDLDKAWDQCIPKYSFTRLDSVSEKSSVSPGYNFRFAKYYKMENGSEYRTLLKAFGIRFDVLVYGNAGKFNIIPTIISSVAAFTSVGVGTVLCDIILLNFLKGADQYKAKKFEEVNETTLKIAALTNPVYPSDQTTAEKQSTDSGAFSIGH
# Protocol: 1) Intracellular Calcium Measurement to Assess Antagonist Activity at Human P2X3 Receptors (hP2X3 FLIPR)
# A fluorescent imaging plate reader (FLEX/FLIPR station; Molecular Devices) was used to monitor intracellular calcium levels using the calcium-chelating dye Fluo-4 (Molecular Probes). The excitation and emission wavelengths used to monitor fluorescence were 470-495 nm and 515-575 nm, respectively. The human astrocytoma […] cells expressing purinergic receptors P2X3 (human) were plated at a density of 15,000 cells/well in collagen—coated 384-well plates approximately 20 hours before beginning the assay. […] The dye supernatant was removed and replaced with 45 μl probenecid buffer (Hank's balanced salt solution, 20 mM HEPES, 0.5 mM CaCl2, 0.5 mM MgCl2, 0.1% BSA, 5 mM probenecid, 10 mM D-glucose monohydrate, pH=7.4). The test compounds were added in a volume of 5 μl and allowed to incubate for 30 min at 37° C. The final assay DMSO concentration is 1%. […] The fluorescence was measured for an interval of 90 sec at 2 sec intervals and analyzed based on the increase in peak relative fluorescence units (RFU) compared to the basal fluorescence. Peak fluorescence was used to determine the response to agonist obtained at each concentration of test compound by the following equation: Response=100*(RFU(test compound)−RFU(control))/(RFU(DMSO)−RFU(control))
# The Examples were tested in triplicates per plate and mean values were plotted in Excel XLFit to determine IC50 values at the human P2X3 and human P2X2/3 receptors, percentage of maximal inhibition and the Hill coefficients.
# [2] = biological target: T1, human P2X3 receptor; assay: Intracellular calcium measurement, antagonist activity at human P2X3 receptors (hP2X3 1321N1), Fluo8; set-up: expressed in transfected cells; host or cells: human astrocytoma 1321N1 (1312N1 [sic]); conditions: column 3); 1321N1 cells, human P2X3, Fluo8, agonist ATP at EC50
# Method in brief: (§1)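 Antagonism was assessed by decrease of the Fluo8 calcium signal after ATP challenge, with ATP dosed at the EC50 of whichever receptor was tested. Stable 1321N1 astrocytoma lines expressed either human P2X3 or both P2X2 and P2X3, and were dye-loaded 60 min before a 10 min compound incubation.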
# [3] = biological target: T1, human P2X3 receptor; assay: Intracellular calcium measurement to assess antagonist activity at human P2X3 receptors (hP2X3 CHO), photina luminescence; set-up: expressed in transfected cells; host or cells: Chinese hamster ovary (CHO) cells; conditions: column 2), CHO cells, agonist α,β-methylene-ATP at EC50
# Method in brief: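 Antagonism read as lowered photina luminescence after agonist stimulation in recombinant hP2X3/photina CHO cells. Cells seeded one day earlier (30 °C) and reconstituted with 5 μg/ml coelenterazine in 2 mM Ca-tyrode buffer for 3 h at 37 °C before measurement.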
# [4] = biological target: T2, human P2X2/3 receptors (Homo sapiens, UniProt P56373+Q9UBL9); assay: Intracellular calcium measurement, antagonist activity at human P2X2/3 receptors (hP2X23 1321N1), Fluo8; conditions: for IC50: column 4); 1321N1 cells, human P2X2/3, Fluo8, agonist ATP at EC50; read-out: 4) hP2X2/3 IC50 [nM] (1321N1); for hP2X23/hP2X3* Selectivity (1321N1): ratio of column 4) hP2X2/3 to column 3) hP2X3, 1321N1
# T2 construct: expressed in transfected cells; host or cells: human astrocytoma 1321N1 (1312N1 [sic])
# T2 sequence (P56373 1-397): T1 sequence (P56373 1-397)
# T2 sequence (Q9UBL9 1-471): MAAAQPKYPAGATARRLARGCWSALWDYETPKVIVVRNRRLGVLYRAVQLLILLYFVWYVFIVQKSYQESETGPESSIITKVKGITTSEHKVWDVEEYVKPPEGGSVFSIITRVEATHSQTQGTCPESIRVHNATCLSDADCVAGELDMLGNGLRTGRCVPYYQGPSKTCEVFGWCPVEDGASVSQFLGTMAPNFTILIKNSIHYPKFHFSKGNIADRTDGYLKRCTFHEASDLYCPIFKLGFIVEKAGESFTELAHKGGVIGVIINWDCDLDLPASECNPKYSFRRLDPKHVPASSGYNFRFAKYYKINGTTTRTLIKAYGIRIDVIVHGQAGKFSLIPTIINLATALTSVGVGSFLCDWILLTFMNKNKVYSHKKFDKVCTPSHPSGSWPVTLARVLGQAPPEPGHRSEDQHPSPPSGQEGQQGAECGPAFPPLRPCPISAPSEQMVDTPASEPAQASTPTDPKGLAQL
# Method in brief: as §1
IC50 [1] [nM],IC50 [2] [nM],IC50 [3] [nM],IC50 [4] [nM],hP2X23/hP2X3* Selectivity (1321N1) [4],Structure (SMILES)
377,370,394,> 32000,>86,CC(C)N1Cc2c(n(CC(=O)Nc3ccc(F)cn3)c3ccnn3c2=O)C1=O [Example 45]
117,155,215,8700,56,Cc1cc2n(CC(=O)Nc3ccc(F)cn3)c3c(c(=O)n2n1)CN([C@@H](C)C1CC1)C3=O [Example 50]
57,115,55,> 20900,>183,"COCC(C)N1Cc2c(n(CC(=O)Nc3ccc(F)cn3)c3cc(C(=O)N(C)C)nn3c2=O)C1=O (racemic) [Example 140, 4-{2-[(5-fluoropyridin-2-yl)amino]-2-oxoethyl}-6-[(±)-1-methoxypropan-2-yl]-N,N-dimethyl-5,8-dioxo-5,6,7,8-tetrahydro-4H-pyrazolo[1,5-a]pyrrolo[3,4-d]pyrimidine-2-carboxamide]"
104,117,195,10800,93,Cc1cc2n(CC(=O)Nc3ccc(F)cn3)c3c(c(=O)n2n1)CN([C@H](C)C1CC1)C3=O [Example 55]
40,119,59,6850,58,"CC(C)(C)c1cc2n(CC(=O)Nc3ccc(F)cn3)c3c(c(=O)n2n1)CN(CCO)C3=O [Example 135, 2-[2-tert-butyl-6-(2-hydroxyethyl)-5,8-dioxo-5,6,7,8-tetrahydro-4H-pyrazolo[1,5-a]pyrrolo[3,4-d]pyrimidin-4-yl]-N-(5-fluoropyridin-2-yl)acetamide]"
237,400,420,> 32000,>80,"CN(C)CCN1Cc2c(n(CC(=O)Nc3ccc(F)cn3)c3cc(C(C)(C)C)nn3c2=O)C1=O [Example 139, 2-{2-tert-butyl-6-[2-(dimethylamino)ethyl]-5,8-dioxo-5,6,7,8-tetrahydro-4H-pyrazolo[1,5-a]pyrrolo[3,4-d]pyrimidin-4-yl}-N-(5-fluoropyridin-2-yl)acetamide]"
56,86,32,9150,107,"CC(C)(C)c1cc2n(CC(=O)Nc3ccc(F)cn3)c3c(c(=O)n2n1)CN(CCN1CCOCC1)C3=O [Example 138, 2-{2-tert-butyl-6-[2-(morpholin-4-yl)ethyl]-5,8-dioxo-5,6,7,8-tetrahydro-4H-pyrazolo[1,5-a]pyrrolo[3,4-d]pyrimidin-4-yl}-N-(5-fluoropyridin-2-yl)acetamide]"

# The next lines start with the molecule.
Structure (SMILES),IC50 [1] [nM],IC50 [2] [nM],IC50 [3] [nM],IC50 [4] [nM],hP2X23/hP2X3* Selectivity (1321N1) [4]
CC(C)[C@H](C)N1Cc2c(n(CC(=O)Nc3ccc(Cl)cn3)c3cc(C(C)(C)C)nn3c2=O)C1=O [Example 12],59,225,110,8800,39
CC[C@@H](C)N1Cc2c(n(CC(=O)Nc3ccc(F)cn3)c3cc(C(F)(F)F)nn3c2=O)C1=O [Example 14],30,59,60,11500,194
CC(C)(C)c1cc2n(CC(=O)Nc3ccc(Cl)cn3)c3c(c(=O)n2n1)CN(C1CCC1)C3=O [Example 18],69,124,106,2500,20
CC(C)(C)c1cc2n(CC(=O)Nc3ccc(F)cn3)c3c(c(=O)n2n1)CN(C1CCCC1)C3=O [Example 26],22,46,20,2450,54
COC[C@H](C)N1Cc2c(n(CC(=O)Nc3ccc(F)cn3)c3cc(C(C)C)nn3c2=O)C1=O [Example 39],14,25,29,7550,308
"CC(C)N1Cc2c(n(CC(=O)Nc3ccc(F)cn3)c3cc(C(C)(C)C)nn3c2=O)C1=O [Example 1, 2-[2-tert-butyl-5,8-dioxo-6-(propan-2-yl)-5,6,7,8-tetrahydro-4H-pyrazolo[1,5-a]pyrrolo[3,4-d]pyrimidin-4-yl]-N-(5-fluoropyridin-2-yl)acetamide]",22,35,35,4900,138
Cc1ccc(NC(=O)Cn2c3c(c(=O)n4nc(C(C)(C)C)cc24)CN(C2CCC2)C3=O)nc1 [Example 19],379,740,430,8050,11
CC(C)(O)CN1Cc2c(n(CC(=O)Nc3ccc(F)cn3)c3cc(C(C)(C)C)nn3c2=O)C1=O [Example 32],139,170,121,12000,71
COC[C@H](C)N1Cc2c(n(CC(=O)Nc3ccc(F)cn3)c3cc(C)nn3c2=O)C1=O [Example 41],55,82,51,> 32000,>393
CC(C)(C)c1cc2n(CC(=O)Nc3ccc(F)cn3)c3c(c(=O)n2n1)CN(CC(=O)N1CCCC1)C3=O [Example 38],161,627,175,> 21000,>34
COCC(C)N1Cc2c(n(CC(=O)Nc3ccc(F)cn3)c3cc(C(C)(C)C)nn3c2=O)C1=O (stereo not drawn) [Example 25],10,11,23,7150,624
Cc1ccc(NC(=O)Cn2c3c(c(=O)n4nc(C(C)C)cc24)CN(C(C)C)C3=O)nc1 [Example 9],107,263,220,> 19900,>76
CC(C)c1cc2n(CC(=O)Nc3ccc(Cl)cn3)c3c(c(=O)n2n1)CN(C(C)C)C3=O [Example 8],50,48,51,3650,76
CC(C)(C)c1cc2n(CC(=O)Nc3ccc(F)cn3)c3c(c(=O)n2n1)CN(CC1CCOCC1)C3=O [Example 28],146,410,305,12300,30
